What is called EC50 is the concentration needed to bring the measured effect to its halfway point.

Drawing on US9133115B2 (ACHILLION PHARMACEUTICALS, INC., priority 2008, dated 2015), this text covers EC50 for 17 molecules.

The structures appear in SMILES notation.

The test relates to HCV replicon. Nature of the test: HCV replicon replication assay (NPT ELISA) in Huh-7 replicon-containing cells. In kind it is cell-based. The conditions noted are these: Hepatitis C virus, 72 h; HCV replicon in Huh-7 cells, three days incubation; read-out: EC50. The method in brief:
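Huh-7 cells carrying a bicistronic HCV replicon (HCV-IRES-neo, EMCV-IRES-driven NS3–NS5B, 3′-NTR) were seeded at 6000-7500 cells/well, grown 24 h to 60-70% confluence, then treated with graded compound concentrations. Replication was read as NPT level by capture ELISA (rabbit anti-NPTII, Eu-N1 secondary); interferon alpha served as positive control.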
On the technique in general: In antiviral work, replicon cells carry a viral genome segment that copies itself.
As for `C=C[C@@H]1C[C@]1(NC(=O)[C@@H]1C[C@@H](O)CN1C(=O)[C@@H](CC(=O)N1CCCCC1)C(C)(C)C)C(=O)NS(=O)(=O)C1CC1` [Compound 84, (2S,4R)-1-((S)-2-tert-butyl-4-oxo-4-(piperidin-1-yl)butanoyl)-N-((1R,2S)-1-(cyclo-propylsulfonyl-carbamoyl)-2-vinylcyclopropyl)-4-hydroxypyrrolidine-2-carboxamide], the EC50 fell in the range of 1000 to 10000 nM.

On to `C=C[C@@H]1C[C@]1(NC(=O)[C@@H]1C[C@@H](Oc2cc(-c3ccccc3)nc3cc(OC)ccc23)CN1C(=O)C(CC(=O)N1CCCCC1)C(C)(C)C)C(=O)NS(=O)(=O)C1CC1` (stereo partly drawn) [Compound 55, (2S,4R)-1-(2-tert-butyl-4-oxo-4-(piperidin-1-yl)butanoyl)-N-((1R,2S)-1-(cyclopropyl-sulfonylcarbamoyl)-2-vinylcyclopropyl)-4-(7-methoxy-2-phenylquinolin-4-yloxy)pyrrolidine-2-carboxamide], for which the EC50 was < 1000 nM.

With `C=C[C@@H]1C[C@]1(NC(=O)[C@@H]1C[C@@H](Oc2cc(-c3ccccc3)nc3cc(OC)ccc23)CN1C(=O)[C@@H](CC(=O)N1CCCCC1)C(C)(C)C)C(=O)NS(=O)(=O)CC` [Compound 120, (2S,4R)-1-((S)-2-tert-butyl-4-oxo-4-(piperidin-1-yl)butanoyl)-N-((1R,2S)-1-(ethyl-sulfonylcarbamoyl)-2-vinylcyclopropyl)-4-(7-methoxy-2-phenylquinolin-4-yloxy)pyrrolidine-2-carboxamide], the EC50 is < 1000 nM.

In the case of `C=C[C@@H]1C[C@]1(NC(=O)[C@@H]1C[C@@H](NC(=O)c2cc(-c3ccccc3)nc3ccccc23)CN1C(=O)[C@@H](CC(=O)N1CCCC(F)(F)C1)C(C)(C)C)C(=O)NS(=O)(=O)C1CC1` [Compound 202, N-((3R,5S)-1-((S)-2-tert-butyl-4-(3,3-difluoropiperidin-1-yl)-4-oxobutanoyl)-5-((1R,2S)-1-(cyclo-propylsulfonyl-carbamoyl)-2-vinyl-cyclopropyl-carbamoyl)pyrrolidin-3-yl)-2-phenylquinoline-4-carboxamide], the EC50 is < 1000 nM.

In the case of `C=C[C@@H]1C[C@]1(NC(=O)[C@@H]1C[C@@H](Oc2cc(-c3csc(NC(C)C)n3)nc3cc(OC)ccc23)CN1C(=O)[C@@H](CC(=O)N1CCCCC1)C(C)(C)C)C(=O)NS(=O)(=O)C1CC1` [Compound 96, (2S,4R)-1-((S)-2-tert-butyl-4-oxo-4-(piperidin-1-yl)butanoyl)-N-((1R,2S)-1-(cyclopropylsulfonyl-carbamoyl)-2-vinylcyclopropyl)-4-(2-(2-(isopropyl-amino)thiazol-4-yl)-7-methoxyquinolin-4-yloxy)pyrrolidine-2-carboxamide], the EC50 was < 1000 nM.

For the molecule `C=C[C@@H]1C[C@]1(NC(=O)[C@@H]1C[C@@H](Oc2cc(-c3ccccc3)nc3cc(OC)ccc23)CN1C(=O)[C@@H](CC(=O)N1CC(Cl)C1)C(C)(C)C)C(=O)NS(=O)(=O)C1CC1` [Compound 224, (2S,4R)-1-((S)-2-tert-butyl-4-(3-chloroazetidin-1-yl)-4-oxobutanoyl)-N-((1R)-1-(cyclopropyl-sulfonylcarbamoyl)-2-vinylcyclopropyl)-4-(7-methoxy-2-phenylquinolin-4-yloxy)pyrrolidine-2-carboxamide], the EC50 is < 1000 nM.

As for `C=C[C@@H]1C[C@]1(NC(=O)[C@@H]1C[C@@H](Oc2cc(-c3cccnc3)nc3c(C)c(OC)ccc23)CN1C(=O)[C@@H](CC(=O)N1CCCC(F)(F)C1)C(C)(C)C)C(=O)NS(=O)(=O)C1CC1` [Compound 252, (2S,4R)-1-((S)-2-tert-butyl-4-(3,3-difluoropiperidin-1-yl)-4-oxobutanoyl)-N-((2S)-1-(cyclopropyl-sulfonylcarbamoyl)-2-vinylcyclopropyl)-4-(7-methoxy-8-methyl-2-(pyridin-3-yl)quinolin-4-yloxy)pyrrolidine-2-carboxamide], the EC50 was < 1000 nM.

Turning to `C=C[C@@H]1C[C@]1(NC(=O)[C@@H]1C[C@@H](Oc2cc(-c3ccccc3)nc3cc(OC)ccc23)CN1C(=O)[C@@H](CC(=O)N1CCCCC1)C(C)(C)C)C(=O)NS(=O)(=O)C1(CC)CC1` [Compound 145, (2S,4R)-1-((S)-2-tert-butyl-4-oxo-4-(piperidin-1-yl)butanoyl)-N-((1R,2S)-1-(1-ethylcyclopropyl-sulfonylcarbamoyl)-2-vinylcyclopropyl)-4-(7-methoxy-2-phenylquinolin-4-yloxy)pyrrolidine-2-carboxamide], the EC50 was < 1000 nM.

As for `C=C[C@@H]1C[C@]1(NC(=O)[C@@H]1C[C@@H](Oc2cc(-c3ccccc3)nc3cc(OC)ccc23)CN1C(=O)[C@@H](CC(=O)N1CC2CC1CO2)C(C)(C)C)C(=O)NS(=O)(=O)C1CC1` (stereo partly drawn) [Compound 174, (2S,4R)-1-((2S)-2-(2-(2-oxa-5-aza-bicyclo[2.2.1]heptan-5-yl)-2-oxoethyl)-3,3-dimethylbutanoyl)-N-((1R,2S)-1-(cyclopropyl-sulfonylcarbamoyl)-2-vinylcyclopropyl)-4-(7-methoxy-2-phenylquinolin-4-yloxy)pyrrolidine-2-carboxamide], the EC50 is < 1000 nM.

Consider `C=C[C@@H]1C[C@]1(NC(=O)[C@@H]1C[C@@H](Oc2cc(-c3csc(N(C)C)n3)nc3cc(OC)ccc23)CN1C(=O)[C@@H](CC(=O)N1CCOCC1)C(C)(C)C)C(=O)NS(=O)(=O)C1CC1` [Compound 138, (2S,4R)-1-((S)-2-tert-butyl-4-morpholino-4-oxobutanoyl)-N-((1R,2S)-1-(cyclo-propylsulfonyl-carbamoyl)-2-vinyl-cyclopropyl)-4-(2-(2-(dimethylamino)thiazol-4-yl)-7-methoxyquinolin-4-yloxy)pyrrolidine-2-carboxamide], for which the concentration giving a half-maximal response (EC50) is < 1000 nM.

With `C=C[C@@H]1C[C@]1(NC(=O)[C@@H]1C[C@@H](OC(=O)n2c3ccccc3c3ccccc32)CN1C(=O)[C@@H](CC(=O)N1CCCCC1)C(C)(C)C)C(=O)NS(=O)(=O)C1CC1` [Compound 99, (3R,5S)-1-((S)-2-tert-butyl-4-oxo-4-(piperidin-1-yl)butanoyl)-5-((1R,2S)-1-(cyclo-propylsulfonyl-carbamoyl)-2-vinyl-cyclopropyl-carbamoyl)pyrrolidin-3-yl 9H-carbazole-9-carboxylate], the EC50 was < 1000 nM.

Consider `C=C[C@@H]1C[C@]1(NC(=O)[C@@H]1C[C@@H](Oc2cc(-c3ccccc3)nc3cc(OC)ccc23)CN1C(=O)[C@H](CC(=O)N1CCCCC1)C(C)(C)C)C(=O)NS(=O)(=O)C1CC1` [Compound 134, (2S,4R)-1-((R)-2-tert-butyl-4-oxo-4-(piperidin-1-yl)butanoyl)-N-((1R,2S)-1-(cyclo-propylsulfonyl-carbamoyl)-2-vinylcyclopropyl)-4-(7-methoxy-2-phenylquinolin-4-yloxy)pyrrolidine-2-carboxamide], for which the EC50 is 1000 to 10000 nM.

With `C=C[C@@H]1C[C@]1(NC(=O)[C@@H]1C[C@@H](Oc2cc(-c3ccccc3)nc3cc(OC)ccc23)CN1C(=O)[C@@H](CC(=O)N1CCCCC1)CC1CC1)C(=O)NS(=O)(=O)C1CC1` [Compound 124, (2S,4R)-1-((R)-2-(cyclopropylmethyl)-4-oxo-4-(piperidin-1-yl)butanoyl)-N-((1R,2S)-1-(cyclopropylsulfonyl-carbamoyl)-2-vinylcyclopropyl)-4-(7-methoxy-2-phenylquinolin-4-yloxy)pyrrolidine-2-carboxamide], the EC50 is < 1000 nM.

`C=C[C@@H]1C[C@]1(NC(=O)[C@@H]1C[C@@H](Oc2cc(-c3ccccc3)nc3cc(OC)ccc23)CN1C(=O)[C@@H](CC(=O)N1CCC2(CC1)OCCO2)C(C)(C)C)C(=O)NS(=O)(=O)C1CC1` [Compound 75, (2S,4R)-1-((2S)-2-tert-butyl-4-oxo-4-(1,4-dioxa-8-azaspiro[4.5]decan-8-yl)butanoyl)-N-((1R,2S)-1-(cyclopropylsulfonyl-carbamoyl)-2-vinylcyclopropyl)-4-(7-methoxy-2-phenylquinolin-4-yloxy)pyrrolidine-2-carboxamide]: the EC50 was < 1000 nM.

Consider `C=C[C@@H]1C[C@]1(NC(=O)[C@@H]1C[C@@H](Oc2cc(-c3ccccn3)nc3cc(OC)ccc23)CN1C(=O)[C@@H](CC(=O)N1CCCCC1)C(C)(C)C)C(=O)NS(=O)(=O)C1CC1` [Compound 165, (2S,4R)-1-((S)-2-tert-butyl-4-oxo-4-(piperidin-1-yl)butanoyl)-N-((1R,2S)-1-(cyclo-propylsulfonyl-carbamoyl)-2-vinyl-cyclopropyl)-4-(7-methoxy-2-(pyridin-2-yl)quinolin-4-yloxy)pyrrolidine-2-carboxamide], for which the EC50 is < 1000 nM.

On to `C=C[C@@H]1CC1(NC(=O)[C@@H]1C[C@@H](Oc2cc(-c3cccnc3)nc3c(C)c(OC)ccc23)CN1C(=O)[C@@H](CC(=O)N1CCC(C(F)(F)F)CC1)C(C)(C)C)C(=O)NS(=O)(=O)C1CC1` (stereo in doubt) [Compound 253, (2S,4R)-1-((S)-2-tert-butyl-4-oxo-4-(4-(trifluoro-methyl)piperidin-1-yl)butanoyl)-N-((S)-1-(cyclopropyl-sulfonylcarbamoyl)-2-vinylcyclopropyl)-4-(7-methoxy-8-methyl-2-(pyridin-3-yl)quinolin-4-yloxy)pyrrolidine-2-carboxamide], for which the EC50 was < 1000 nM.

In the case of `C=C[C@@H]1C[C@]1(NC(=O)[C@@H]1C[C@@H](Oc2cc(-c3ccccc3)nc3c4c(ccc23)CCC4)CN1C(=O)[C@@H](CC(=O)N1CCCCC1)C(C)(C)C)C(=O)NS(=O)(=O)C1CC1` [Compound 235, (2S,4R)-l-((S)-2-tert-butyl-4-oxo-4-(piperidin-l-yl)butanoyl)-N-((2S)-l-(cyclopropyl-sulfonylcarbamoyl)-2-vinylcyclopropyl)-4-(2-phenyl-8,9-dihydro-7H-cyclo-penta[h]quinolin-4-yloxy)pyrrolidine-2-carboxamide], the EC50 was < 1000 nM.
